Where “and” joins values, the source holds several entries; their conditions need not be identical. Equal entries are not always repeated.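 A five-concentration, 48-hour dose response in 96-well plates underlies each endpoint, interpolated linearly between surrounding concentrations. Abbreviation: GI50, concentration required for 50% inhibition of growth. Definition used: TGI = concentration required for complete inhibition of growth.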 Where a SMILES comes first, the peptide text is derived from it. [ ]: non-standard residue; d: D form. Ac5c = NC1(C(=O)O)CCCC1
Experiments:
Assay in all cases: DTP human tumour cell line panel, 48 h
KM20L2 colon = tested on: KM20L2 colon
LOX IMVI melanoma = tested on: LOX IMVI melanoma
MOLT-4 leukemia = tested on: MOLT-4 leukemia
SK-MEL-5 melanoma = tested on: SK-MEL-5 melanoma
TK-10 renal = tested on: TK-10 renal
A498 renal = tested on: A498 renal
DLD-1 colon = tested on: DLD-1 colon
HOP-92 NSCLC = tested on: HOP-92 NSCLC
T-47D breast = tested on: T-47D breast

## COc1cc(/C=C(\C#N)C(=O)c2ccccc2)ccc1OCc1ccccc1
KM20L2 colon
  TGI: > 100 µM
LOX IMVI melanoma
  TGI: > 100 µM
MOLT-4 leukemia
  TGI: > 100 µM
SK-MEL-5 melanoma
  TGI: > 100 µM
TK-10 renal
  TGI: > 100 µM

## Cc1c(NC(=O)C(C)(C)Br)c(=O)oc2c(C)c3occc(=O)c3cc12
A498 renal
  TGI: 66.3 µM
DLD-1 colon
  TGI: > 100 µM
KM20L2 colon
  TGI: > 100 µM
LOX IMVI melanoma
  TGI: > 100 µM
MOLT-4 leukemia
  TGI: > 100 µM
SK-MEL-5 melanoma
  TGI: > 100 µM
TK-10 renal
  TGI: > 100 µM

## CC1C[C@@]2(c3ccccc3)C(=O)CCC[C@H]2N1 (stereo partly drawn)
A498 renal
  TGI: > 100 µM
DLD-1 colon
  TGI: > 100 µM
HOP-92 NSCLC
  TGI: > 100 µM
KM20L2 colon
  TGI: > 100 µM
MOLT-4 leukemia
  TGI: > 100 µM
SK-MEL-5 melanoma
  TGI: > 100 µM
TK-10 renal
  TGI: > 100 µM

## O=C1c2ccccc2-c2cccc3ccc(Cc4ccc5ccccc5c4)c1c23
DLD-1 colon
  TGI: > 100 µM
HOP-92 NSCLC
  TGI: > 100 µM
KM20L2 colon
  TGI: > 100 µM
MOLT-4 leukemia
  TGI: > 100 µM
SK-MEL-5 melanoma
  TGI: > 100 µM
TK-10 renal
  TGI: > 100 µM

## CC(C)c1ccc(C(=O)Nc2nc3ccc(O)cc3s2)cc1
A498 renal
  GI50: 2.2 µM
  TGI: 9.91 µM
HOP-92 NSCLC
  GI50: 5.18 µM
  TGI: 55 µM
LOX IMVI melanoma
  GI50: 0.2 µM
  TGI: 29.5 µM
MOLT-4 leukemia
  GI50: 0.246 µM
  TGI: > 100 µM
SK-MEL-5 melanoma
  GI50: 0.535 µM
  TGI: > 100 µM
T-47D breast
  GI50: 0.715 µM
  TGI: > 100 µM
TK-10 renal
  GI50: 8.98 µM
  TGI: > 100 µM

## O=S(=O)(NC1=NCCN1C(=S)SN1CCn2c1nsc2=S)c1ccc(Br)cc1
A498 renal
  GI50: 33.7 µM
  TGI: > 100 µM
HOP-92 NSCLC
  GI50: 0.0273 µM
  TGI: 36.7 µM
LOX IMVI melanoma
  GI50: 19.4 µM
  TGI: 39.6 µM
MOLT-4 leukemia
  GI50: 27.1 µM
  TGI: > 100 µM
SK-MEL-5 melanoma
  GI50: 19.5 µM
  TGI: 47.9 µM
T-47D breast
  GI50: 43.5 µM
  TGI: > 100 µM
TK-10 renal
  GI50: 22 µM
  TGI: 83.5 µM

## COc1cc(Cl)c2c3c(c(C(C)=O)oc13)CCC2
A498 renal
  TGI: > 100 µM
DLD-1 colon
  TGI: > 100 µM
HOP-92 NSCLC
  TGI: > 100 µM
KM20L2 colon
  TGI: > 100 µM
LOX IMVI melanoma
  TGI: > 100 µM
SK-MEL-5 melanoma
  TGI: > 100 µM
TK-10 renal
  TGI: > 100 µM

## CCNC(=O)CCN(C(=O)O)S(=O)(=O)c1ccc(NC(=O)c2ccccc2)cc1
A498 renal
  TGI: > 100 µM
DLD-1 colon
  TGI: > 100 µM
HOP-92 NSCLC
  TGI: > 100 µM
KM20L2 colon
  TGI: > 100 µM
LOX IMVI melanoma
  TGI: 43.8 µM
MOLT-4 leukemia
  TGI: > 100 µM
SK-MEL-5 melanoma
  TGI: > 100 µM
TK-10 renal
  TGI: > 100 µM

## Cc1cc(I)cc(CN(C)CCCN2CCSCC2)c1O
A498 renal
  GI50: 26.4 µM
  TGI: 51.3 µM
HOP-92 NSCLC
  GI50: 14.6 µM
  TGI: 47.4 µM
LOX IMVI melanoma
  GI50: 17.2 µM
  TGI: 33.5 µM
MOLT-4 leukemia
  GI50: 19.4 µM
  TGI: 41.6 µM
SK-MEL-5 melanoma
  GI50: 16.4 µM
  TGI: 31 µM
T-47D breast
  GI50: 31.3 µM
  TGI: > 100 µM
TK-10 renal
  GI50: 33.3 µM
  TGI: 89.3 µM

## O=c1c2c(nc3n1CCS3)[nH]c1ccccc12
A498 renal
  GI50: 89.5 µM
  TGI: > 100 µM
HOP-92 NSCLC
  GI50: > 100 µM
  TGI: > 100 µM
LOX IMVI melanoma
  GI50: 59.5 µM
  TGI: > 100 µM
MOLT-4 leukemia
  GI50: > 100 µM
  TGI: > 100 µM
SK-MEL-5 melanoma
  GI50: 2.75 µM
  TGI: > 100 µM
T-47D breast
  GI50: > 100 µM
  TGI: > 100 µM
TK-10 renal
  GI50: > 100 µM
  TGI: > 100 µM

## O=S(=O)(N/N=C/c1ccc(/C=N/NS(=O)(=O)c2ccccc2)cc1)c1ccccc1
A498 renal
  TGI: > 100 µM
HOP-92 NSCLC
  TGI: 64.8 µM
KM20L2 colon
  TGI: > 100 µM
LOX IMVI melanoma
  TGI: 51 µM
MOLT-4 leukemia
  TGI: 60.9 µM
SK-MEL-5 melanoma
  TGI: > 100 µM
TK-10 renal
  TGI: > 100 µM

## O=C1Nc2ccc(C(=O)c3ccco3)cc2/C1=C/c1cc(Cl)c(O)c(Cl)c1
A498 renal
  GI50: 3.69 µM
  TGI: 9.72 µM
HOP-92 NSCLC
  GI50: 3.2 µM
  TGI: 14.4 µM
LOX IMVI melanoma
  GI50: 1.78 µM
  TGI: 15.3 µM
MOLT-4 leukemia
  GI50: 9.36 µM
  TGI: 24.9 µM
SK-MEL-5 melanoma
  GI50: 3.43 µM
  TGI: 6.88 µM
T-47D breast
  GI50: 7.17 µM
  TGI: > 25 µM
TK-10 renal
  GI50: 6.53 µM
  TGI: > 23.9 µM

## O=c1c2cc(Cl)ccc2oc2ccc(OCCCCCN3CCCCC3)cc12
A498 renal
  GI50: 6.28 µM
  TGI: 12.8 µM
HOP-92 NSCLC
  GI50: 3.55 µM
  TGI: 10.3 µM
LOX IMVI melanoma
  GI50: 0.967 µM
  TGI: 2.12 µM
MOLT-4 leukemia
  GI50: 3.16 µM
  TGI: 10.7 µM
SK-MEL-5 melanoma
  GI50: 0.892 µM
  TGI: 1.91 µM
T-47D breast
  GI50: 7.21 µM
  TGI: 17 µM
TK-10 renal
  GI50: 8.06 µM
  TGI: 15 µM

## Nc1ccc(N(S(=O)(=O)c2ccccc2)S(=O)(=O)c2ccccc2)c(Cl)c1
A498 renal
  TGI: 98.2 µM
HOP-92 NSCLC
  TGI: > 100 µM
LOX IMVI melanoma
  TGI: > 100 µM
MOLT-4 leukemia
  TGI: 60.5 µM
SK-MEL-5 melanoma
  TGI: 50.4 µM
T-47D breast
  TGI: > 100 µM
TK-10 renal
  TGI: > 100 µM

## CCOC(=O)Nc1nc2ccc(Cn3cccc3)cc2[nH]1
A498 renal
  TGI: 41.6 µM
DLD-1 colon
  TGI: > 100 µM
HOP-92 NSCLC
  TGI: > 100 µM
KM20L2 colon
  TGI: 12.9 µM
LOX IMVI melanoma
  TGI: > 100 µM
MOLT-4 leukemia
  TGI: > 100 µM
SK-MEL-5 melanoma
  TGI: > 38.6 µM
T-47D breast
  TGI: > 100 µM
TK-10 renal
  TGI: > 100 µM

## COC(=O)CCc1cc(OC)c2c(c1)C(C(=O)OC)C(c1ccc(OC)c(OC)c1)O2 (stereo not drawn)
A498 renal
  GI50: > 100 µM
  TGI: > 100 µM
HOP-92 NSCLC
  TGI: > 100 µM
LOX IMVI melanoma
  GI50: > 100 µM and 12.1 µM
  TGI: > 100 µM
MOLT-4 leukemia
  GI50: 65.1 µM and 7.2 µM
  TGI: > 100 µM
SK-MEL-5 melanoma
  GI50: > 100 µM and 12 µM
  TGI: > 100 µM
T-47D breast
  TGI: > 100 µM
TK-10 renal
  TGI: > 100 µM

## CCCCCCCCC[C@@H]1CC(=O)OCC2OC(O[C@H](CCCCCCCCC)CC(=O)OCC3OC(O[C@H](CCCCCCCCC)CC(=O)OCC4OC(O1)C(O)C(O)C4O)C(O)C(O)C3O)C(O)C(O)C2O (stereo partly drawn)
A498 renal
  TGI: 27.9 µM
DLD-1 colon
  TGI: 28.2 µM
HOP-92 NSCLC
  TGI: 22.6 µM
KM20L2 colon
  TGI: 19.7 µM
LOX IMVI melanoma
  TGI: 11.7 µM
MOLT-4 leukemia
  TGI: 20.6 µM
SK-MEL-5 melanoma
  TGI: 25.5 µM
TK-10 renal
  TGI: 23.1 µM

## COc1cc(C(=O)/C(C)=C/c2c[nH]c3ccccc23)cc(OC)c1OC
A498 renal
  GI50: 0.0025 µM
  TGI: 0.00916 µM
HOP-92 NSCLC
  GI50: 0.074 µM
  TGI: 2.33 µM
LOX IMVI melanoma
  GI50: 0.00468 µM
  TGI: 11.5 µM
MOLT-4 leukemia
  GI50: 0.00546 µM
  TGI: 37 µM
SK-MEL-5 melanoma
  GI50: 0.00428 µM
  TGI: 0.0205 µM
T-47D breast
  GI50: 2.46 µM
  TGI: > 100 µM
TK-10 renal
  TGI: 12.4 µM

## NNC(=O)/C(=C/c1ccc(Cl)c(Cl)c1)NC(=O)c1ccccc1
DLD-1 colon
  TGI: > 100 µM
HOP-92 NSCLC
  TGI: > 100 µM
KM20L2 colon
  TGI: > 100 µM
LOX IMVI melanoma
  TGI: > 100 µM
MOLT-4 leukemia
  TGI: > 100 µM
SK-MEL-5 melanoma
  TGI: > 100 µM
TK-10 renal
  TGI: > 100 µM

## COc1ccccc1N1C(=O)/C(=C/c2ccc(N(CCC#N)CCC#N)cc2C)N=C1c1cc([N+](=O)[O-])ccc1Cl
A498 renal
  TGI: > 100 µM
KM20L2 colon
  TGI: > 100 µM
MOLT-4 leukemia
  TGI: > 100 µM
SK-MEL-5 melanoma
  TGI: > 100 µM
TK-10 renal
  TGI: > 100 µM

## NC1(C(=O)NC2(C(=O)O)CCCC2)CCCC1 (H-[Ac5c]-[Ac5c]-OH)
A498 renal
  TGI: > 100 µM
HOP-92 NSCLC
  TGI: > 100 µM
LOX IMVI melanoma
  TGI: > 100 µM
MOLT-4 leukemia
  TGI: > 100 µM
SK-MEL-5 melanoma
  TGI: > 100 µM
T-47D breast
  TGI: > 100 µM
TK-10 renal
  TGI: > 100 µM

Reference: PubChem BioAssay (NCI)
